Reference: publication PMC8835841, “Novel NK1R-Targeted ^68Ga-/^177Lu-Radioconjugates with Potential Application against Glioblastoma Multiforme: Preliminary Exploration of Structure–Activity Relationships” (International Journal of Molecular Sciences, 2022)
Where “and” joins values, the source holds several entries; their conditions need not be identical. Equal values may be shown once. Read-outs that look alike come from different tables or passages of the source. One block for each molecule: values may come before it. Square brackets hold non-standard residues; d marks the D form. Peptide text beside a SMILES is read from it. * marks the point of attachment. DOTA = O=C(O)CN1CCN(CC(=O)O)CCN(CC(=O)*)CCN(CC(=O)O)CC1; Met(O2) = CS(=O)(=O)CC[C@H](N)C(=O)O; 2Thi = N[C@@H](Cc1cccs1)C(=O)O

Assays:
[1] = physchem; type: physicochemical
Protocol: A lipophilicity study was also performed right after the SPE method purification and ethanol evaporation. For each DOTA radioconjugate, the lipophilicity value was estimated as the logarithm of the distribution coefficient (D) based on the ratio of the radioactivity of the organic phase to the radioactivity of the aqueous phase in the n-octanol/PBS (pH 7.40) system. Simultaneously, the stability of the studied radioconjugate during the experiment was verified through the HPLC analysis of the aqueous phase.
A solution of isolated radioconjugate (approximately 0.5 MBq for ^177Lu-radioconjugates or 5 MBq for ^68Ga-radioconjugates) in 500 µL of 0.1 M PBS buffer (pH 7.40) and 500 µL of n-octanol was vigorously stirred and centrifuged (13,500 rpm for 5 min) to separate the immiscible phases. Then, the radioactivity of samples from both phases were measured using a well-type NaI(Tl) detector. The distribution coefficient, D, was calculated dividing the radioactivity of the radioconjugate in the organic phase to that in the aqueous phase. Each experiment was performed in triplicate and averaged. In parallel, the aqueous phases were analysed by HPLC to confirm the stability of studied radioconjugate during the experiment period. The lipophilicity value of each radioconjugates was expressed as the logarithm of its D value.

[2] = tested on: hNK1R Q165A mutant; conditions: read-out: IC50 Q165A mutant hNK1R; Gln165Ala mutation; cited from earlier work
[3] = tested on: hNK1R His197Ala mutation; conditions: versus wild type; cited from earlier work
[4] = tested on: hNK1R His197Phe mutation; conditions: versus wild type; cited from earlier work
[5] = molecular target: T1, hNK1R (Homo sapiens, UniProt P25103); assay: Saturation binding assay of 177Lu-radioconjugates on CHO-NK1R cells; conditions: for Kd: read-out: Kd ± SD
T1 construct: expressed in transfected cells; host or cells: CHO-K1 (hNK1-CHO), gift from Dr. Attila Keresztes and Dr. John M. Streicher
Protocol: The saturation binding studies of ^177Lu-radioconjugates were performed using transfected CHO-NK1R cell line, and all radioconjugates were obtained according to the common labelling protocol given above with the same specific activity. In brief, 10^5 cells per well were seeded into 24-well plates and incubated 24 h before the experiment. […] After that time, the assay medium was collected into plastic tubes and cells were washed twice with cold Dulbecco’s PBS. Subsequently, cells were lysed using 1M NaOH and collected into plastic tubes for radioactivity measurement. The radioactivity of collected medium and lysed cells was measured using a Wizard^2 2-Detector Gamma Counter (PerkinElmer, Waltham, MA, USA) with the energy window of 50–500 keV. The study data came from three independent experiments carried out in duplicate, while the results, presented as the Kd and BMAX with SD, were calculated using a total and nonspecific binding (one site) nonlinear regression curve fit (GraphPad Prism version 8.0, GraphPad, San Diego, CA, USA).

[6] = molecular target: T2, rNK1R (Rattus norvegicus, UniProt P14600); assay: Competitive radioligand binding assay, rat brain homogenates, [3H]-(Sar9,Met(O2)11)-Substance P; conditions: mean of three independent experiments in duplicate unless stated; for IC50: read-out: IC50 (Mean ± SD) rNK1R
T2 construct: As a source of the receptor proteins, homogenates obtained from rat brains; from tissue; host or cells: rat brain homogenate
Protocol: (§1) The binding affinity of the tested compounds for human and rat NK1R was determined in competitive radioligand binding assays following the method previously described. As a source of the receptor proteins, homogenates obtained from rat brains (obtained as described in Ref [30]) or homogenates made from hNK1-CHO cells were used. […] The final reaction volumes were 250 μL and 1 mL, for the human and rat NK1R determinations, respectively. […] The binding reaction mixtures were incubated in a shaking water bath at 25 °C for 60 min. The reaction was terminated by rapid filtration through Whatman GF/B filter (Gaithersburg, MD) presoaked in 0.5% polyethyleneimine and washed three times with 2 mL of cold saline. The filters were placed in 24-well plates and immersed in a Betaplate Scint scintillation solution (Perkin Elmer, Waltham, MA, USA). The filter-bound radioactivity was determined by scintillation counter MicroBeta LS, Trilux (PerkinElmer, Waltham, MA, USA).
(§2) The displacement curves were drawn and the mean IC50 values were determined with standard deviations (GraphPad Prism version 8.0, San Diego, CA, USA). At least three independent experiments (carried out in duplicate) were performed.

[7] = molecular target: T1, hNK1R; assay: Competitive radioligand binding assay, hNK1-CHO cell homogenates, [3H]-(Sar9,Met(O2)11)-Substance P; conditions: for IC50: hNK1-CHO cell homogenates, mean of three independent experiments in duplicate unless stated, read-out: IC50 (Mean ± SD) hNK1R; for fold weaker hNK1R binding than parent compound: relative to L732,138 (1c)
Protocol: The CHO-K1 cells with a stable overexpression of the human NK1 receptor, denoted further on as hNK1-CHO cells, were obtained as a gift from Dr. Attila Keresztes and Dr. John M. Streicher. The cells were maintained in a humidified atmosphere with 5% CO2 at 37 °C, in Ham’s F12 medium (Corning, Corning, NY, USA) supplemented with 10% Foetal Bovine Serum (CytoGen, Wetzlar, Germany) and 400 μg/mL G418 (Corning, Corning, NY, USA).
When the cells reached approximately 90% confluence, they were harvested by treatment with 0.05% trypsin/EDTA (Corning, Corning, NY, USA). After centrifugation at 1500 rpm for 5 min, the cells were homogenized in a glass tissue homogenizer in ice-cold 50 mM Tris-HCl buffer (pH 7.4) with 5 mM MnCl2. The preparation was collected by centrifugation at 13,000 rpm for 25 min at 4 °C, and then the pellet was suspended in 50 mM Tris-HCl buffer. The homogenates were stored at −80 °C for later use. The BCA assay (Thermo Scientific, Waltham, MA, USA) was used to determine the protein concentration in the homogenates.
as §1, §2

[8] = pH 7.4, logD7.4 (Mean ± SD) 68Ga-
[9] = pH 7.4, logD7.4 (Mean ± SD) 177Lu-
[10] = ratio to [177Lu]Lu-DOTA-[Thi8,Met(O2)11]SP

T2 sequence (P14600 whole entry): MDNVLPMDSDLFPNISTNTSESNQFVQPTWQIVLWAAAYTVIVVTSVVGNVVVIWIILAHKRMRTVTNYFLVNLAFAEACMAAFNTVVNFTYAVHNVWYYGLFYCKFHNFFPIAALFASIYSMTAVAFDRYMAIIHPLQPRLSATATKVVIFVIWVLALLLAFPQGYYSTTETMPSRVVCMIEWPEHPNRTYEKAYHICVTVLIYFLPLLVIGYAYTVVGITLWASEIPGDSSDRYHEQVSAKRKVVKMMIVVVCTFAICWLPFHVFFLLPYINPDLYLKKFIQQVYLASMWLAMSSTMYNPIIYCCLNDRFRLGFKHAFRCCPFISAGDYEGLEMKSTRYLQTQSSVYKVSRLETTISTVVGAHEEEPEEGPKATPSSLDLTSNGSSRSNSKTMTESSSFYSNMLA
T1 sequence (P25103 whole entry): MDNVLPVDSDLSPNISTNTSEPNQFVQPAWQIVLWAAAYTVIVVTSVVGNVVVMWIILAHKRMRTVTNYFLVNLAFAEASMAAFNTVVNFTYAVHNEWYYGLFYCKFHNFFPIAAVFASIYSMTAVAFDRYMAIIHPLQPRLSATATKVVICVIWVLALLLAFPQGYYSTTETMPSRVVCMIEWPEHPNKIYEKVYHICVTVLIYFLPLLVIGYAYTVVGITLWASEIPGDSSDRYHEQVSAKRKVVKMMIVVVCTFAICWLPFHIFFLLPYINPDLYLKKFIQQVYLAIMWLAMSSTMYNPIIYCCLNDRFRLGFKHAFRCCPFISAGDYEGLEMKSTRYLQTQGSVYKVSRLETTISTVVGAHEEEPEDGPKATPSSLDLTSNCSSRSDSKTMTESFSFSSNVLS

SMILES: C[C@@H](NC(=O)CN1CCN(CC(=O)O)CCN(CC(=O)O)CCN(CC(=O)O)CC1)C(=O)N[C@@H](Cc1c[nH]c2ccccc12)C(=O)OCc1cc(C(F)(F)F)cc(C(F)(F)F)c1 [[^68Ga]Ga-2d, metal not drawn]
logD [1, 8]: -0.06 ± 0.02

SMILES: O=C(O)CN1CCN(CC(=O)O)CCN(CC(=O)NCCCCCC(=O)NCCCCCC(=O)N[C@@H](Cc2c[nH]c3ccccc23)C(=O)OCc2cc(C(F)(F)F)cc(C(F)(F)F)c2)CCN(CC(=O)O)CC1 [[^177Lu]Lu-5d, metal not drawn]
logD [1, 9]: 0.294 ± 0.013

SMILES: CC(=O)N[C@@H](Cc1c[nH]c2ccccc12)C(=O)OCc1cc(C(F)(F)F)cc(C(F)(F)F)c1 [Compound 1c, 3,5-bis(trifluoromethyl)benzyl acetyl-L-tryptophanate]
IC50 [2]: 8.1 nM | decrease of affinity with His197Ala mutation [3]: ten-fold | effect of His197Phe mutation on affinity [4]: no effect

SMILES: O=C(O)CN1CCN(CC(=O)O)CCN(CC(=O)NCCCCCC(=O)N[C@@H](Cc2c[nH]c3ccccc23)C(=O)OCc2cc(C(F)(F)F)cc(C(F)(F)F)c2)CCN(CC(=O)O)CC1 [[^177Lu]Lu-4d, metal not drawn]
logD [1, 9]: 0.866 ± 0.019

SMILES: O=C(O)CN1CCN(CC(=O)O)CCN(CC(=O)N[C@@H](Cc2c[nH]c3ccccc23)C(=O)OCc2cc(C(F)(F)F)cc(C(F)(F)F)c2)CCN(CC(=O)O)CC1 [[^68Ga]Ga-1d, metal not drawn]
logD [1, 8]: -0.085 ± 0.015

SMILES: O=C(O)CN1CCN(CC(=O)O)CCN(CC(=O)NCCCCCC(=O)N[C@@H](Cc2c[nH]c3ccccc23)C(=O)OCc2cc(C(F)(F)F)cc(C(F)(F)F)c2)CCN(CC(=O)O)CC1 [[^68Ga]Ga-4d, metal not drawn]
logD [1, 8]: 0.071 ± 0.023

BMAX ± SD ([5]; CHO-NK1R cells, 60 min at 37 °C): 0.762 nM and 0.762 ± 0.046 nM | Kd ([5]; CHO-NK1R cells, 60 min at 37 °C, aprepitant as blocker): 6.98 ± 0.69 nM | BMAX Ratio to SP [5, 10]: 0.82 | Kd Ratio to SP [5, 10]: 1.13
SMILES: O=C(O)CN1CCN(CC(=O)O)CCN(CC(=O)N[C@@H](Cc2c[nH]c3ccccc23)C(=O)OCc2cc(C(F)(F)F)cc(C(F)(F)F)c2)CCN(CC(=O)O)CC1 [[^177Lu]Lu-1d, metal not drawn]
logD [1, 9]: 0.4 ± 0.004

SMILES: C[C@@H](NC(=O)CN1CCN(CC(=O)O)CCN(CC(=O)O)CCN(CC(=O)O)CC1)C(=O)N[C@@H](Cc1c[nH]c2ccccc12)C(=O)OCc1cc(C(F)(F)F)cc(C(F)(F)F)c1 [[^177Lu]Lu-2d, metal not drawn]
logD [1, 9]: 0.704 ± 0.005

SMILES: C[C@@H](NC(=O)CN1CCN(CC(=O)O)CCN(CC(=O)O)CCN(CC(=O)O)CC1)C(=O)N[C@H](C)C(=O)N[C@@H](Cc1c[nH]c2ccccc12)C(=O)OCc1cc(C(F)(F)F)cc(C(F)(F)F)c1 [[^68Ga]Ga-3d, metal not drawn]
logD [1, 8]: -0.259 ± 0.017

IC50 [6]: 1140 ± 289 nM | IC50 [7]: 13.5 ± 12.1 nM
SMILES: CC(=O)N[C@H](C)C(=O)N[C@H](C)C(=O)N[C@@H](Cc1c[nH]c2ccccc12)C(=O)OCc1cc(C(F)(F)F)cc(C(F)(F)F)c1 [Compound 3c, 3,5-bis(trifluoromethyl)benzyl acetyl-D-alanyl-D-alanyl-L-tryptophanate]

SMILES: C[C@@H](NC(=O)CN1CCN(CC(=O)O)CCN(CC(=O)O)CCN(CC(=O)O)CC1)C(=O)N[C@H](C)C(=O)N[C@@H](Cc1c[nH]c2ccccc12)C(=O)OCc1cc(C(F)(F)F)cc(C(F)(F)F)c1 [[^177Lu]Lu-3d, metal not drawn]
logD [1, 9]: 0.619 ± 0.007

Kd [5]: 6.15 ± 0.64 nM
SMILES: CC(C)C[C@H](NC(=O)CNC(=O)[C@H](Cc1cccs1)NC(=O)[C@H](Cc1ccccc1)NC(=O)[C@H](CCC(N)=O)NC(=O)[C@H](CCC(N)=O)NC(=O)[C@@H]1CCCN1C(=O)[C@H](CCCCN)NC(=O)[C@@H]1CCCN1C(=O)[C@H](CCCNC(=N)N)NC(=O)CN1CCN(CC(=O)O)CCN(CC(=O)O)CCN(CC(=O)O)CC1)C(=O)N[C@@H](CCS(C)(=O)=O)C(N)=O [[^177Lu]Lu-DOTA-[Thi^8,Met(O2)^11]SP, metal not drawn, reference compound] ({DOTA}-RPKPQQF[2Thi]GL[Met(O2)]-NH2; N-terminus and C-terminus assumed)

SMILES: CC(C)(C)OC(=O)N[C@@H](Cc1c[nH]c2ccccc12)C(=O)OCc1cc(C(F)(F)F)cc(C(F)(F)F)c1 [Compound 1a, 3,5-bis(trifluoromethyl)benzyl (tert-butoxycarbonyl)-L-tryptophanate]
IC50 [6]: 2930 ± 1520 nM | IC50 [7]: 180 ± 112 nM | fold weaker hNK1R binding than parent compound [7]: 7 ×

IC50 [6]: > 10000 nM | IC50 [7]: 359 ± 132 nM | fold weaker hNK1R binding than parent compound [7]: 14 ×
SMILES: N[C@@H](Cc1c[nH]c2ccccc12)C(=O)OCc1cc(C(F)(F)F)cc(C(F)(F)F)c1.O=C(O)C(F)(F)F [Compound 1b, (S)-1-((3,5-bis(trifluoromethyl)benzyl)oxy)-3-(1H-indol-3-yl)-1-oxopropan-2-aminium 2,2,2-trifluoroacetate]

IC50 [6]: 4680 ± 1320 nM | IC50 [7]: 25.4 ± 12.5 nM
SMILES: C[C@@H](N)C(=O)N[C@@H](Cc1c[nH]c2ccccc12)C(=O)OCc1cc(C(F)(F)F)cc(C(F)(F)F)c1 [Compound 2b, (R)-1-(((S)-1-((3,5-bis(trifluoromethyl)benzyl)oxy)-3-(1H-indol-3-yl)-1-oxopropan-2-yl)amino)-1-oxopropan-2-aminium 2,2,2-trifluoroacetate]

IC50 (Mean ± SD) rNK1R [6]: submicromolar | IC50 [6]: 655 ± 120 nM | IC50 [7]: 14.3 ± 5.2 nM
SMILES: CC(=O)NCCCCCC(=O)NCCCCCC(=O)N[C@@H](Cc1c[nH]c2ccccc12)C(=O)OCc1cc(C(F)(F)F)cc(C(F)(F)F)c1 [Compound 5c, 3,5-bis(trifluoromethyl)benzyl (6-(6-acetamidohexanamido)hexanoyl)-L-tryptophanate]

SMILES: O=C(O)CN1CCN(CC(=O)O)CCN(CC(=O)NCCCCCC(=O)NCCCCCC(=O)N[C@@H](Cc2c[nH]c3ccccc23)C(=O)OCc2cc(C(F)(F)F)cc(C(F)(F)F)c2)CCN(CC(=O)O)CC1 [[^68Ga]Ga-5d, metal not drawn]
logD [1, 8]: -0.466 ± 0.016
